Values joined by “and” are separate entries in the source; they are usually repeats but may differ in a detail not shown here. Identical values can stand only once.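 Where inhibition never reached the appropriate level, the endpoint shown equals the highest concentration tested. Otherwise, values were interpolated linearly from a five-concentration, 48-hour dose response in 96-well plates. At the GI50, growth is halved. TGI is the concentration that stops growth completely.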

Test systems include ACHN renal; HT29 colon; OVCAR-4 ovarian; OVCAR-5 ovarian; SK-MEL-2 melanoma; SK-MEL-5 melanoma; SW-620 colon; U251 CNS; UACC-62 melanoma; HCC-2998 colon.
Holding throughout (experiment): growth of human tumour cells (NCI), 48 h

For `C(/C=C/c1ccccc1)=Nc1ccc2c(c1)Cc1ccccc1-2`, the TGI with ACHN renal, in the assay with HT29 colon, with OVCAR-4 ovarian, in the assay on OVCAR-5 ovarian, in the assay with SK-MEL-2 melanoma and in the assay with SK-MEL-5 melanoma was > 100 µM each time. The TGI with SW-620 colon is > 100 µM; in the assay with U251 CNS, 44.4 µM; in the assay on UACC-62 melanoma, > 100 µM.

`CC(=O)N1N=C(c2ccc3ccccc3c2O)CC1c1cccs1` (stereo not given): the TGI was > 100 µM in the assay on ACHN renal; 66 µM in the assay on HCC-2998 colon; > 100 µM in the assay on HT29 colon; > 100 µM in the assay with OVCAR-4 ovarian; > 100 µM in the assay with OVCAR-5 ovarian; 74.3 µM with SK-MEL-2 melanoma. For the same compound, the TGI in the assay on SK-MEL-5 melanoma is > 100 µM; with SW-620 colon it was > 100 µM; with U251 CNS it was > 100 µM; in the assay on UACC-62 melanoma it was 25.9 µM.

On to `COc1cc(C2S/C(=C/c3ccccc3)C(=O)N2c2ccc(NC(C)=O)cc2)cc(OC)c1OC` (stereo not given), for which the TGI is 77.8 µM in the assay on ACHN renal; 52.3 µM in the assay with HCC-2998 colon; 32 µM in the assay with HT29 colon; > 100 µM in the assay with OVCAR-4 ovarian; 96.2 µM with OVCAR-5 ovarian; 20.3 µM in the assay with SK-MEL-2 melanoma. Also, the TGI in the assay with SK-MEL-5 melanoma was 34.9 µM; in the assay with U251 CNS, 38.5 µM; with UACC-62 melanoma, > 100 µM.

On to `NC(=S)N/N=C/c1nccc2ccccc12`, for which the TGI in the assay with ACHN renal is 1.01 µM; in the assay on HCC-2998 colon it was > 100 µM; with HT29 colon, > 100 µM; in the assay on OVCAR-4 ovarian, > 100 µM; with OVCAR-5 ovarian it was > 100 µM; in the assay with SK-MEL-2 melanoma, > 100 µM. In addition, the TGI is > 100 µM in the assay on SK-MEL-5 melanoma, > 100 µM with SW-620 colon, > 100 µM in the assay on U251 CNS and 14.7 µM in the assay on UACC-62 melanoma.

Take `NC(CSCc1ccc(I)cc1)C(=O)O` (stereo not given): the TGI with ACHN renal, with HCC-2998 colon, in the assay on HT29 colon, in the assay with OVCAR-4 ovarian, in the assay on OVCAR-5 ovarian and in the assay with SK-MEL-2 melanoma was > 100 µM each time. Further, the TGI with SK-MEL-5 melanoma, with SW-620 colon, in the assay with U251 CNS and with UACC-62 melanoma was > 100 µM each time.

Take `Cc1nc2c(c(=O)[nH]1)S/C(=C(/C#N)c1nc3ccccc3[nH]1)N2c1ccccc1`: the TGI with ACHN renal, in the assay with HCC-2998 colon, in the assay with HT29 colon, in the assay on OVCAR-4 ovarian, in the assay with OVCAR-5 ovarian and in the assay with SK-MEL-2 melanoma was > 100 µM in each case. The TGI with SK-MEL-5 melanoma, in the assay with SW-620 colon, with U251 CNS and with UACC-62 melanoma was > 100 µM throughout.

On to `c1ccc(N2N=C(c3cccc(Nc4ccncc4)c3)CC2c2ccc3c(c2)OCO3)cc1` (stereo not given), for which the GI50 was 1640 nM in the assay with ACHN renal; 1840 nM with HCC-2998 colon; 1530 nM with OVCAR-4 ovarian; 2060 nM in the assay with OVCAR-5 ovarian; 2020 nM with SK-MEL-2 melanoma; 1770 nM in the assay on SK-MEL-5 melanoma. Further, the GI50 in the assay with SW-620 colon was 1180 nM; in the assay on U251 CNS it was 1810 nM; in the assay on UACC-62 melanoma it was 1730 nM. The TGI worked out at 3.21 µM with ACHN renal; 3.36 µM with HCC-2998 colon; 3.89 µM in the assay with OVCAR-4 ovarian; 4.85 µM in the assay on OVCAR-5 ovarian; 4.01 µM with SK-MEL-2 melanoma; 3.17 µM in the assay with SK-MEL-5 melanoma. For the same compound, the values for the TGI in the assay with SW-620 colon, in the assay on U251 CNS and in the assay on UACC-62 melanoma were 2.54 µM, 3.74 µM and 3.24 µM, respectively.

Regarding `O=C1C(Cl)N(c2cccc(Cl)c2)C1c1c[nH]c2ccccc12` (stereo not given), the TGI in the assay with HT29 colon, in the assay on OVCAR-4 ovarian, in the assay on SK-MEL-2 melanoma, with SK-MEL-5 melanoma, in the assay on SW-620 colon and in the assay with U251 CNS was > 100 µM each time. In addition, the TGI in the assay with UACC-62 melanoma was > 100 µM.

As for `CC[C@@H]1ON(C)[C@H]2CN(C)C(=O)[C@@H]12`, the TGI with ACHN renal, in the assay on HCC-2998 colon, in the assay on HT29 colon, with OVCAR-4 ovarian, with OVCAR-5 ovarian and with SK-MEL-2 melanoma was > 100 µM each time. Further, the TGI in the assay on SK-MEL-5 melanoma, with SW-620 colon and in the assay with U251 CNS was > 100 µM in each case.

Regarding `Nc1ccccc1Nc1ccccc1C(=O)[O-].Nc1ccccc1Nc1ccccc1C(=O)[O-].[Zn+2]`, the TGI in the assay on ACHN renal was > 100 µM; in the assay with HCC-2998 colon, > 100 µM; with HT29 colon, > 100 µM; in the assay on OVCAR-5 ovarian it was > 100 µM; in the assay on SK-MEL-2 melanoma, 43.2 µM; in the assay with SK-MEL-5 melanoma, > 100 µM. Further, the TGI in the assay on SW-620 colon is > 100 µM; in the assay with U251 CNS, > 100 µM; in the assay with UACC-62 melanoma it was 68.2 µM.

For `COc1ccc(-c2csc(=Nc3ccccc3)n2CCCN(C)C)cc1`, the TGI in the assay on ACHN renal was 48.6 µM; in the assay on HCC-2998 colon, 35.3 µM; in the assay with OVCAR-4 ovarian, 65.6 µM; in the assay on OVCAR-5 ovarian, 30.4 µM; in the assay with SK-MEL-2 melanoma, 37.7 µM; with U251 CNS, > 100 µM. In the assay on UACC-62 melanoma, this compound yielded a TGI of 34.7 µM.

Take `COc1cc([C@@H]2c3cc4c(c(O)c3C[C@H]3COC(=O)[C@@H]32)OCO4)cc(OC)c1OC`: the GI50 in the assay on ACHN renal was 1430 nM; in the assay on HCC-2998 colon, < 24.1 nM and 241 nM; with HT29 colon, 1180 nM; in the assay with OVCAR-4 ovarian, 2300 nM; with OVCAR-5 ovarian, 725 nM; in the assay on SK-MEL-2 melanoma, 1020 nM. Also, the GI50 in the assay with SK-MEL-5 melanoma was 40.7 nM; in the assay with SW-620 colon it was 123 nM; in the assay on U251 CNS it was 183 nM; in the assay with UACC-62 melanoma it was 144 nM. The TGI was 121 µM and > 100 µM in the assay on ACHN renal; 150 µM and > 241 µM and > 100 µM in the assay with OVCAR-5 ovarian; > 100 µM in the assay with U251 CNS.

For `C=C(C)C(=O)O[C@H]1CC2=C[C@@H](C[C@@]3(C)O[C@@H]3[C@H]3OC(=O)C(=C)[C@@H]31)OC2=O`, the TGI in the assay with HCC-2998 colon was found to be 9.82 µM; with HT29 colon, 5.93 µM; in the assay with OVCAR-4 ovarian, 6.48 µM; in the assay with OVCAR-5 ovarian, 12.2 µM; in the assay with SK-MEL-2 melanoma, 8.81 µM; with SK-MEL-5 melanoma it was 8.22 µM. Besides, the TGI in the assay with SW-620 colon came to 1.94 µM; in the assay with U251 CNS, 14.6 µM; in the assay on UACC-62 melanoma, 7.61 µM.

Regarding `CCOC1=NC(C(F)(F)F)(C(F)(F)F)N=C(N2CCOCC2)O1`, the TGI with ACHN renal, in the assay with HCC-2998 colon, in the assay on HT29 colon, with OVCAR-4 ovarian, in the assay with OVCAR-5 ovarian and with SK-MEL-2 melanoma was > 100 µM each time. In addition, the TGI with SK-MEL-5 melanoma, in the assay on SW-620 colon, with U251 CNS and in the assay with UACC-62 melanoma was > 100 µM each time.

These data come from PubChem BioAssay (NCI).
